The record followed here is patent US9180116B2, “Difluorolactam compounds as EP4 receptor-selective agonists for use in the treatment of EP4-mediated diseases and conditions” (Cayman Chemical Company, Inc., priority 2012, dated 2015).

Where two headings read alike, the source gives them in different places.

In general, IC50 refers to the concentration that gives 50% inhibition. As a reminder, the Ki is the dissociation constant of the complex between target and ligand, obtained from inhibition or displacement.

For experiment [1], the target named is T1, rat EP4 receptor (Rattus norvegicus (Rat), UniProt P43114). The experiment can be described thus: SEAP activity assay for EP4 agonist (STEP plate format). It counts as cell-based. An excerpt:
(§1) Functional Cellular Assays (STEP Plate Format)
(§2) Procedure of SEAP Activity Assay for EP2/EP4 Agonist
(§3) 3. […] In addition each concentration had triplicates.
(§4) 4. […] Cover the plate with the lid.

Experiment [2] has as its target T1, rat EP4 receptor. The experiment can be described thus: cAMP level assay for EP4 agonist (STEP plate format). It counts as cell-based. As to conditions: read-out: STEP cell functional assay EC50 cAMP/EP4.
From the text: as §1
(§5) Procedure of cAMP Assay for EP2/EP4 Agonist
as §3
(§6) 6. Aspirate the supernatant.
In general terms: Changes in cAMP serve as a functional read-out for many G protein-coupled receptors.

Experiment [3] has as its target Human Prostanoid EP4 Receptor (Homo sapiens (Human), UniProt P35408). The experiment can be described thus: Radioligand binding assay, agonist site of human prostanoid EP4 receptor in transfected HEK-293 cells. As to conditions: for IC50: read-out: hEP4 receptor binding IC50; for Ki: read-out: hEP4 receptor binding Ki. Here is the method:
Radioligand Binding Assay for the Evaluation of the Affinity of Compounds for the Agonist Site of the Human Prostanoid EP4 Receptor in Transfected HEK-293 Cells
Following incubation, the samples are filtered rapidly under vacuum through glass fiber filters (GF/B, Packard) presoaked with 0.3% PEI and rinsed several times with ice-cold 50 mM Tris-HCl using a 96-sample cell harvester (Unifilter, Packard). The filters are dried then counted for radioactivity in a scintillation counter (Topcount, Packard) using a scintillation cocktail (Microscint 0, Packard).

The next experiment has as its system calvarial bone defect. The experiment can be described thus: Rat calvarial defect model (bone formation). It counts as in vivo, female Sprague Dawley rats. The note with it: rat cranial defect 2.6 mm, drug in calcium phosphate cement/demineralized bone matrix, eight weeks.
Experiment [4] has as its target T2, rat EP2 receptor (Rattus norvegicus (Rat), UniProt Q62928). The experiment can be described thus: SEAP activity assay for EP2 agonist (STEP plate format). It counts as cell-based. The note with it: read-out: STEP cell functional assay EC50 SEAP/EP2.
From the text: as §1, §2, §3, §4

Experiment [5] concerns the target T2, rat EP2 receptor. The experiment can be described thus: cAMP level assay for EP2 agonist (STEP plate format). It counts as cell-based. As to conditions: cAMP readout, read-out: STEP cell functional assay EC50 cAMP/EP2.
From the text: as §1, §5, §3, §6

[6] abbreviates: SEAP luminescence, 6-8 hours of stimulation, read-out: STEP cell functional assay EC50 SEAP/EP4.
[7] abbreviates: cAMP by ELISA, 30 minutes, 500 μM IBMX.
[8] abbreviates: [3H]PGE2 0.5 nM, HEK-293 cell membrane homogenates.
Setting [9] is: SEAP luminescence, 6-8 hours of stimulation.

T1 sequence (P43114 whole entry): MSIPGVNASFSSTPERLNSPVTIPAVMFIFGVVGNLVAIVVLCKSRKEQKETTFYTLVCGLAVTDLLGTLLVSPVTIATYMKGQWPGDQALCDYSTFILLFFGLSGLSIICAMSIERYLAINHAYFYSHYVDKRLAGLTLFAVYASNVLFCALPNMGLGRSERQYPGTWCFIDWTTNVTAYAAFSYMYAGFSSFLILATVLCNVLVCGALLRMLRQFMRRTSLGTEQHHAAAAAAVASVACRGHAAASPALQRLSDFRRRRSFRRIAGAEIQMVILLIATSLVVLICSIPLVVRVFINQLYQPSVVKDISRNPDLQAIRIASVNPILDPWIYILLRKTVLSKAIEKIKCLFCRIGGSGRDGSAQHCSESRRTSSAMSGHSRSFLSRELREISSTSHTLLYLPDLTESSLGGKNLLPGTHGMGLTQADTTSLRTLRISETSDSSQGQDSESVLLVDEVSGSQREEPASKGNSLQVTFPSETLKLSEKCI
T2 sequence (Q62928 whole entry): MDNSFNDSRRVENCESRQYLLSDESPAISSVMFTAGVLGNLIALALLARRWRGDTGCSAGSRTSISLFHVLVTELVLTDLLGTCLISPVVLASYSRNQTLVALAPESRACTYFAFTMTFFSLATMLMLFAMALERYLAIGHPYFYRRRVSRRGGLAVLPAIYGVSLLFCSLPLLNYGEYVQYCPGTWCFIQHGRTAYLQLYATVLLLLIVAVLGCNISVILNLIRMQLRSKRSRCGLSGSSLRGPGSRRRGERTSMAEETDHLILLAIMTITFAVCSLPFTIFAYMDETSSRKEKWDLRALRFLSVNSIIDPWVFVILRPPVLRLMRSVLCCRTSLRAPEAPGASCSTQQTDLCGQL
Chain of Human Prostanoid EP4 Receptor (P35408 whole entry): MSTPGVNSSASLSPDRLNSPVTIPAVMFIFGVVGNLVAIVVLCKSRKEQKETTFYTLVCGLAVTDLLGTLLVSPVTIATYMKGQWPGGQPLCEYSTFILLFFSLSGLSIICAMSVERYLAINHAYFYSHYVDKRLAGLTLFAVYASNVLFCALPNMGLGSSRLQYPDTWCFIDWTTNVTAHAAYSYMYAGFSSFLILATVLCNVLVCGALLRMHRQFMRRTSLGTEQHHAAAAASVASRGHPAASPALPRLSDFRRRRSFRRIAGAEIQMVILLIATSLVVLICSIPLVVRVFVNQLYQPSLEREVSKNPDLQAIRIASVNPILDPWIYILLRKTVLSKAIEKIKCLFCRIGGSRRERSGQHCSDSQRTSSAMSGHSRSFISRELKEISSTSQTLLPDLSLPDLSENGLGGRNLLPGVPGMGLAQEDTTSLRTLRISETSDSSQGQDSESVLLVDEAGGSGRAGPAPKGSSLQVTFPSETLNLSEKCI

With `CC#CC[C@H](C)[C@H](O)/C=C/[C@H]1CC(F)(F)C(=O)N1CCCCCCC(=O)O` [Example 1F, 7-((R)-3,3-difluoro-5-((3S,4S,E)-3-hydroxy-4-methyloct-1-en-6-yn-1-yl)-2-oxopyrrolidin-1-yl)heptanoic acid], at rat EP4 receptor [1] (setting [6]), the EC50 was 0.059 nM. In addition, at rat EP4 receptor [2] (setting [7]), the EC50 came out at 0.15 nM. In addition, in experiment [3] (setting [8]), the half-inhibitory concentration (IC50) is 1.2 nM and the inhibitory constant (Ki) is 0.44 nM.

For the compound `CCC#CC[C@H](C)[C@H](O)/C=C/[C@H]1CC(F)(F)C(=O)N1CCCCCCC(=O)O` [Example 2C, 7-((R)-3,3-difluoro-5-((3S,4S,E)-3-hydroxy-4-methylnon-1-en-6-yn-1-yl)-2-oxopyrrolidin-1-yl)heptanoic acid], the “Healing of a calvarial bone defect” value in the experiment on calvarial bone defect is “Accelerated Healing”. The results for the EC50 at rat EP4 receptor [1] (setting [6]), at rat EP4 receptor [2] (setting [7]) and at rat EP2 receptor [4] (setting [9]) were 0.038 ± 0.037 nM, 0.24 ± 0.08 nM and above 1000 nM, respectively. In addition, the IC50 in experiment [3] (setting [8]) is 1.3 nM. Moreover, in experiment [3] (setting [8]), the inhibitory constant (Ki) was 0.49 nM.

For `CCCCC[C@H](O)/C=C/[C@H]1CC(F)(F)C(=O)N1CCCCCCC(=O)O` [Example 9C, 7-((R)-3,3-difluoro-5-((S,E)-3-hydroxyoct-1-en-1-yl)-2-oxopyrrolidin-1-yl)heptanoic acid], the EC50 on rat EP4 receptor [1] (setting [6]) worked out at 0.059 nM; at rat EP4 receptor [2] (setting [7]), 0.37 nM; on rat EP2 receptor [4] (setting [9]), 205 ± 124 nM. In addition, the IC50 in experiment [3] (setting [8]) is 0.57 nM. In addition, the Ki in experiment [3] (setting [8]) is 0.21 nM.

In the case of `O=C(O)CCCCCCN1C(=O)C(F)(F)C[C@@H]1/C=C/[C@@H](O)CCCCc1ccccc1` [Example 10C, 7-((R)-3,3-difluoro-5-((S,E)-3-hydroxy-7-phenylhept-1-en-1-yl)-2-oxopyrrolidin-1-yl)heptanoic acid], on rat EP4 receptor [1] (setting [6]), the EC50 was 0.01 nM. Further, the EC50 on rat EP4 receptor [2] (setting [7]) turned out to be 1.1 nM. Further, in experiment [3] (setting [8]), the IC50 was 4.9 nM and the Ki came out at 1.8 nM.

On to `CCC#CC[C@H](C)[C@H](O)/C=C/[C@H]1CC(F)(F)C(=O)N1CCc1ccc(C(=O)O)cc1` [Example 12D, 4-(2-((R)-3,3-difluoro-5-((3S,4S,E)-3-hydroxy-4-methylnon-1-en-6-yn-1-yl)-2-oxopyrrolidin-1-yl)ethyl)benzoic acid], for which the EC50 was 0.035 nM on rat EP4 receptor [1] (setting [6]), 0.047 nM on rat EP4 receptor [2] (setting [7]) and 1630 nM at rat EP2 receptor [4] (setting [9]). The IC50 in experiment [3] (setting [8]) is 0.32 nM. In addition, in experiment [3] (setting [8]), the Ki was found to be 0.12 nM.

Regarding `CCCCC[C@H](O)/C=C/[C@H]1CC(F)(F)C(=O)N1CCc1ccc(C(=O)O)cc1` [Example 21C, 4-(2-((R)-3,3-difluoro-5-((S,E)-3-hydroxyoct-1-en-1-yl)-2-oxopyrrolidin-1-yl)ethyl)benzoic acid], the EC50 at rat EP4 receptor [1] (setting [6]) turned out to be 0.075 nM; at rat EP4 receptor [2] (setting [7]), 0.61 nM; at rat EP2 receptor [4] (setting [9]) it was 1960 nM. For the same compound, in experiment [3] (setting [8]), the IC50 was found to be 0.22 nM. In experiment [3] (setting [8]), the Ki came to 0.082 nM.

With `C[C@@H](CCCc1ccccc1)[C@H](O)/C=C/[C@H]1CC(F)(F)C(=O)N1CCCc1ccc(C(=O)O)s1` [Example 28C, 5-(3-((R)-3,3-difluoro-5-((3S,4S,E)-3-hydroxy-4-methyl-7-phenylhept-1-en-1-yl)-2-oxopyrrolidin-1-yl)propyl)thiophene-2-carboxylic acid], the EC50 was 0.01 ± 0.021 nM on rat EP4 receptor [2] (cAMP readout, EP4) and 148 ± 5 nM on rat EP2 receptor [4] (SEAP readout, EP2). Also, the IC50 in experiment [3] (human EP4 receptor binding) was 0.74 nM. For the same compound, in experiment [3] (human EP4 receptor binding), the Ki is 0.28 nM.

For `C[C@@H](CCCc1ccccc1)[C@H](O)CC[C@H]1CC(F)(F)C(=O)N1CCCc1ccc(C(=O)O)s1` [Example 28C-H2, 5-(3-((S)-3,3-difluoro-5-((3R,4S)-3-hydroxy-4-methyl-7-phenylheptyl)-2-oxopyrrolidin-1-yl)propyl)thiophene-2-carboxylic acid], the EC50 was 1310 nM at rat EP2 receptor [5] and 0.0029 ± 0.0008 nM at rat EP4 receptor [2] (cAMP readout, EP4).

As to `CCCCC[C@H](O)/C=C/[C@H]1CC(F)(F)C(=O)N1CCCc1ccc(C(=O)O)s1` [Example 33C, 5-(3-((R)-3,3-difluoro-5-((S,E)-3-hydroxyoct-1-en-1-yl)-2-oxopyrrolidin-1-yl)propyl)thiophene-2-carboxylic acid], the EC50 is 0.063 nM at rat EP4 receptor [1] (SEAP readout, EP4, read-out: STEP cell functional assay EC50 SEAP/EP4); 0.079 nM on rat EP4 receptor [2] (cAMP readout, EP4); 326 nM on rat EP2 receptor [4] (SEAP readout, EP2). For the same compound, in experiment [3] (human EP4 receptor binding), the IC50 stood at 0.28 nM. For the same compound, the Ki in experiment [3] (human EP4 receptor binding) was found to be 0.1 nM.

At rat EP4 receptor [1], `CCCCC[C@H](O)/C=C/[C@H]1[C@H](O)CC(=O)[C@@H]1C/C=C\CCCC(=O)O` [PGE2, prostaglandin E2, reference compound] had an EC50 of […].
